Assay results reported in patent US12331040B2 (Karyopharm Therapeutics Inc., priority 2013, dated 2025).
pIC50: −log10 of the molar value.

Assays:
[1] = system: MDA-MB-468 xenografts; experiment: MDA-MB-468 (triple negative breast cancer) xenograft in CB-17 SCID mice; type: in vivo, mouse; conditions: for mean tumor volume of MDA-MB-468 xenografts: CB-17 SCID mice, 15 mg/kg PO once daily Monday through Friday; for toxicity (side effects, weight loss): MDA-MB-468 xenograft model, minimal or no side effects or weight loss up to 200 mg/kg daily dose
Protocol: The oncological impact of Compound 504 and Compound 510 were tested using a MDA-MB-468 (triple negative breast cancer) xenograft model in CB-17 SCID mice. MDA-MB-468 (ATCC #HTB-102) breast adenocarcinoma cells were obtained from ATCC. The cells were grown in high glucose DMEM supplemented with 10% fetal bovine serum, 1% penicillin and streptomycin, and 2 mM L-glutamine. Cells were sub-cultured by dilution at a ratio of 1:4. MDA-MB-468 cells were harvested by trypsinization and counted using a hemocytometer. Cells were resuspended in PBS at a 4×10^8 cells per mL. Cells were placed on ice and mixed with an equal volume of Matrigel (BD Biosciences CB-40234). Thirty-two (32) CB-17 SCID mice were inoculated sub-cutaneously in the left flank with 4×10^7 MDA-MB-468 cells. Treatment was initiated when the tumors reached a mean volume of about 100 mm^3. Mice were allocated to four (4) groups of eight (8) mice such that mean tumor volume was about 100 mm^3 in each group. Mice were treated with vehicle, standard of care/positive control drug (paclitaxel), Compound 504 or Compound 510. Compound 504 (15 mg/kg) and Compound 510 (15 mg/kg) were given orally (PO) once daily on Monday through Friday each week. Animals' weights and condition were recorded daily, and tumors were measured on Mondays, Wednesdays, and Fridays.

[2] = system: U2OS cells; experiment: Western blots of autophagy, stress and cell cycle markers in U2OS cells; type: cell-based, human; conditions: 1 μM or 10 μM, 48 hours, Western blot
Protocol: U2OS cells were plated in a 6-well plate overnight. The next day, the cells were treated with 1 μM or 10 μM Compound 585 for 48 hours, then collected and lysed in RIPA buffer. The lysate was run on SDS-PAGE and Western blots of PAK4, PUMA, CHOP, p21, cyclin D, MLH1, p-AMPK, AMPK and LC3 were performed.

[3] = system: Hep G2 cells; experiment: MTT cell proliferation assay; type: cell-based; conditions: Homo sapiens, HepG2; Hep G2 cells; 72-hour MTT; read-out: Hep G2 MTT IC50
Protocol: (§1) The MTT cell proliferation assay was used to study the cytotoxic properties of the compounds. The assay was performed according to the method described by Roche Molecular Biochemicals, with minor modifications. The assay is based on the cleavage of the tetrazolium salt, MTT, in the presence of an electron-coupling reagent. The water-insoluble formazan salt produced must be solubilized in an additional step. Cells grown in a 96-well tissue culture plate were incubated with the MTT solution for approximately 4 hours. After this incubation period, a water-insoluble formazan dye formed. After solubilization, the formazan dye was quantitated using a scanning multi-well spectrophotometer (ELISA reader). […] The cells were seeded at 5,000-10,000 cells in each well of 96-well plate in 100 μL of fresh culture medium and were allowed to attach overnight. The stock solutions of the compounds were diluted in 100 μL cell culture medium to obtain eight concentrations of each test compound, ranging from 1 nM to 30 μM. […] All optical densities were measured at 490 nm using a Vmax Kinetic Microplate Reader (Molecular Devices). In most cases, the assay was performed in duplicate and the results were presented as a mean percent inhibition to the negative control±SE. The following formula was used to calculate the percent of inhibition: Inhibition (%)=(1−(ODo/OD))×100.
(§2) The M24 cell line is derived from human melanoma cells. The U2OS cell line is a human osteosarcoma cell line expressing wild type p53 and Rb, but lacking p16. The MM1S cell line is a multiple myeloma cell line; the parent cell line, MM.1, was established from peripheral blood of a multiple myeloma patient who had become resistant to steroid-based therapy. The RPMI8226 cell line is derived from human B lymphocyte cells. NHDF cells are normal human dermal fibroblast cells. The MRC-5 cell line is derived from normal lung tissue of a fetus. The PC3 cell line is a human prostate cancer cell line. The DU-145 cell line is a human prostate cancer cell line. The MDA-MB-231 cell line is a human breast adenocarcinoma cell line. The MDA-MB-468 cell line is a human breast carcinoma cell line. HL-60 cells are human promyelocytic leukemia cells. Hep G2 cells are human hepatocellular carcinoma cells. HEP 3B cells are human hepatocellular carcinoma cells. The DLD-1 cell line is a colorectal adenocarcinoma cell line. The HCT-15 cell line is a human colon carcinoma cell line. The Colo-205 cell line is derived from a human adenocarcinoma of the colon. The LoVo cell line is a human colon adenocarcinoma cell line.

[4] = system: RPMI8226 cells; experiment: MTT cell proliferation assay; type: cell-based; conditions: Homo sapiens, RPMI-8226; RPMI8226 cells; 72-hour MTT; read-out: RPMI8226 MTT IC50
Protocol: as §1, §2

[5] = system: HL-60 cells; experiment: MTT cell proliferation assay; type: cell-based; conditions: Homo sapiens; HL-60 cells; 72-hour MTT; read-out: HL-60 MTT IC50
Protocol: as §1, §2

[6] = system: HEP 3B cells; experiment: MTT cell proliferation assay; type: cell-based; conditions: Homo sapiens, Hep3B; HEP 3B cells; 72-hour MTT; read-out: HEP 3B MTT IC50
Protocol: as §1, §2

[7] = system: PAK4 signalling in IMR-90 cells; experiment: Western blots of PAK4 signalling in normal cells (IMR-90); type: cell-based; conditions: IMR-90 normal cell line; 72-hour treatment, increasing concentrations; Western blot
Protocol: (§3) Normal human dermal fibroblasts (NHDF) and normal lung cells (IMR-90) were treated with Compound 585 for 72 hours, at which time the cells were lysed in RIPA buffer. The lysates were run on SDS-PAGE and Western blots of phospho-PAK4, PAK4, phospho-cofilin, cofilin, phospho-β-catenin, β-catenin, PARP and caspase-3 were performed.

[8] = system: PAK4 signalling in NHDF cells; experiment: Western blots of PAK4 signalling in normal cells (NHDF); type: cell-based, human; conditions: NHDF normal cell line; 72-hour treatment, increasing concentrations; Western blot
Protocol: as §3

Nc1ccc(/C=C/C(=O)NCc2cc3cc(-c4ccc(S(=O)(=O)N5CCOCC5)cc4)cc(Cl)c3o2)cn1 [Compound 504, (E)-3-(6-Aminopyridin-3-yl)-N-((7-chloro-5-(4-(morpholinosulfonyl)phenyl)benzofuran-2-yl)methyl)acrylamide]
mean tumor volume of MDA-MB-468 xenografts [1]: tumor growth inhibition
toxicity (side effects, weight loss) [1]: without major toxicity

Nc1ccc(/C=C/C(=O)NCc2cc3cc(-c4ccc(C(=O)N5CCOCC5)cc4)cc(C(F)(F)F)c3o2)cn1 [Compound 510, (E)-3-(6-aminopyridin-3-yl)-N-((5-(4-(morpholine-4-carbonyl)phenyl)-7-(trifluoromethyl)benzofuran-2-yl)methyl)acrylamide]
mean tumor volume of MDA-MB-468 xenografts [1]: tumor growth inhibition
toxicity (side effects, weight loss) [1]: without major toxicity

Nc1ccc(/C=C/C(=O)NCc2cc3cc(-c4ccc(C(=O)N5CCC(F)(F)CC5)cn4)cc(C(F)(F)F)c3o2)cn1 [Compound 585, (E)-3-(6-aminopyridin-3-yl)-N-((5-(5-(4,4-difluoropiperidine-1-carbonyl)pyridin-2-yl)-7-(trifluoromethyl)benzofuran-2-yl)methyl)acrylamide]
cell cycle proteins, p21 and cyclin D1 [2]: reduced
markers of stress response and autophagy (AMPK phosphorylation, short form of LC3 lysosome marker) [2]: induced markers of stress response and autophagy
pIC50 [3]: 6.80
pIC50 [4]: 6.82
pIC50 [5]: 6.68
pIC50 [6]: 7.15
effect on PAK4 signalling (phospho-PAK4, PAK4, phospho-cofilin, cofilin, phospho-β-catenin, β-catenin, PARP, caspase 3) [7]: little to no effect
effect on PAK4 signalling (phospho-PAK4, PAK4, phospho-cofilin, cofilin, phospho-β-catenin, β-catenin, PARP, caspase 3) [8]: little to no effect
